Experimental findings from US20150038545A1, “HYDROXYPHENYL PYRROLE COMPOUNDS CONTAINING AN HYDROXAMIC ACID AS HDAC INHIBITORS AND MEDICINAL APPLICATIONS THEREOF” (UNIVERSIDAD DEL PAÍS VASCO, priority 2011, published 2015) are described below.

The target in one assay is T1, Human HDAC3/NcoR2 (Homo sapiens, UniProt O15379).
T1 construct: Complex of human HDAC3, full length with C-terminal His tag, MW=49.7 kDa; His (C); purchased BioMol SE-507
The assay can be described thus: In vitro HDAC3 inhibition, fluorogenic peptide assay. The assay is classed as biochemical. The note with it: for IC50: read-out: IC50 (nM) of enzyme activity HDAC3. How it is done:
(§1) All HDAC assays were performed using acetylated AMC-labeled peptide substrate: • Substrate for isoforms HDAC1, 2, 3, 4, 5, 6, 7, 9, 10, 11 and HeLa nuclear extract assays: Acetylated fluorogenic peptide from p53 residues 379-382 (RHKKAc) (BioMol. Cat. # KI-104). • Substrate for HDAC8 assays: Acetylated fluorogenic peptide from p53 residues 379-382 (RHKAcKAc) (BioMol. Cat. # KI-178).
(§2) Enzymes: • HDAC1 assay: 75 nM Human HDAC1 (GenBank Accession No. NM_004964): Full length with C-terminal GST tag, MW=79.9 kDa, expressed by baculovirus expression system in Sf9 cells (BioMol. Cat. # SE-456). • HDAC2 assay: 5 nM Human HDAC2 (GenBank Accession No. Q92769): Full length with C-terminal His tag, MW=60 kDa, expressed by baculovirus expression system in Sf9 cells (BioMol. Cat. # SE-500). • HDAC3 assay: 2.3 nM Human HDAC3/NcoR2 (GenBank Accession No. NM_003883 for HDAC3, GenBank Accession No.NM_006312 for NcoR2): Complex of human HDAC3, full length with C-terminal His tag, MW=49.7 kDa, and human NCOR2, N-terminal GST tag, MW=39 kDa, co-expressed in baculovirus expression system (BioMol. Cat. # SE-507). • HDAC4 assay: 266 nM Human HDAC4 (GenBank Accession No. NM_006037): Amino acids 627-1085 with N-terminal GST tag, MW=75.2 kDa, expressed in baculovirus expression system (BioMol, Hamburg, Germany). • HDAC5 assay: 588 nM Human HDAC5 (GenBank Accession No. NM_001015053): Full length with Nterminal GST tag, MW=150 kDa, expressed by baculovirus expression system in Sf9 cells (BioMol, Hamburg, Germany). • HDAC6 assay: 13 nM Human HDAC6 (GenBank Accession No. BC069243): Full length with N-terminal GST tag, MW=159 kDa, expressed by baculovirus expression system in Sf9 cells (BioMol. Cat. # SE-508). • HDAC7 assay: 962 nM Human HDAC7 (GenBank Accession No. AY302468): Amino acids 518-end with N-terminal GST tag, MW=78 kDa, expressed in baculovirus expression system (BioMol, Hamburg, Germany). • HDAC8 assay: 119 nM Human HDAC8 (GenBank Accession No. NM018486): Full length, MW=42 kDa, expressed in an E. coli expression system (BioMol. Cat. # SE-145). • HDAC9 assay: 986 nM Human HDAC9 (GenBank Accession No. NM178423): Amino acids 604-1066 with C-terminal His tag, MW=50.7 kDa, expressed in baculovirus expression system (BioMol, Hamburg, Germany). • HDAC10 assay: 781 nM Human HDAC10 (GenBank Accession No. NM_032019): Amino acids 1-631 with Nterminal GST tag, MW=96 kDa, expressed by baculovirus expression system in Sf9 cells (BioMol. Cat. # SE-559). • HDAC11 assay: 781 nM Human HDAC11 (GenBank Accession No. NM_BC009676) with N-terminal GST tag, MW=66 kDa, expressed in baculovirus expression system (BioMol. Cat. # SE-560). • HeLaNuclear Extract assay: 25 ng/μl Nuclear Extract from HeLa Cells: Prepared by high salt extraction of HeLa nuclei (human cervical cancer cell line), this extract is a rich source of HDAC activity (BioMol. Cat. # KI-140).
(§3) The reactions were carried out in a 96-well microplate for fluorometry in a 50 μl reaction volume. After the deacetylation reaction, Fluor-de-Lys-Developer (BioMol Cat. # KI-105) was added to each well to digest the deacetylated substrate, thus producing the fluorescent signal. The reaction was allowed to develop for 45 minutes at 30° C. with 5% CO2; then the fluorescent signal was measured with an excitation wavelength at 360 nm and an emission wavelength at 460 nm in a microplate-reading fluorometer (GeminiXS; Molecular Devices, Sunnyvale, Calif.). […] All experiments were performed in triplicate. IC50 was calculated by fitting the experimental data to a dose-response curve. DMSO was used as negative control; Trichostatin A (Biomol Cat. # GR-309) was used as positive control inhibitor.

The target of another assay is T2, Human HDAC8 (Homo sapiens, UniProt Q9BY41).
T2 construct: Full length, MW=42 kDa, expressed in an E. coli expression system; purchased BioMol SE-145; host or cells: E. coli
T2 sequence (Q9BY41 1-377): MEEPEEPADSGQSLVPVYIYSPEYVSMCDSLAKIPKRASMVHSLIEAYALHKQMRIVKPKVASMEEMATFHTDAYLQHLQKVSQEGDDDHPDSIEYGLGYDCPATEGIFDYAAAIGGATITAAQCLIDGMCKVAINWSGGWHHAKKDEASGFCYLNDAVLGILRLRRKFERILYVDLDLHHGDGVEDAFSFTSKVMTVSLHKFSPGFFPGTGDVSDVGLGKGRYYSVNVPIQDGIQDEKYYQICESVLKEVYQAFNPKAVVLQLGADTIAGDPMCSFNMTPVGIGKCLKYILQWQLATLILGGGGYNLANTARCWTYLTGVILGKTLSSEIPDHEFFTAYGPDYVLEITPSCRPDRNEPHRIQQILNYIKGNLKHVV
The assay is described as follows: In vitro HDAC8 inhibition, fluorogenic peptide assay. The assay is classed as biochemical. The note with it: for IC50: read-out: IC50 (nM) of enzyme activity HDAC8. The protocol: as §1, §2, §3

Another assay concerns the target T3, Human HDAC2 (Homo sapiens, UniProt Q92769).
T3 construct: Full length with C-terminal His tag, MW=60 kDa; His (C); purchased BioMol SE-500; host or cells: Sf9 cells, baculovirus
The assay can be described thus: In vitro HDAC2 inhibition, fluorogenic peptide assay. It is filed as biochemical. The note with it: for IC50: read-out: IC50 (nM) of enzyme activity HDAC2. How it is done: as §1, §2, §3

The test system of assay [1] is T4, Nuclear Extract from HeLa Cells.
T4 construct: 25 ng/μl Nuclear Extract from HeLa Cells: Prepared by high salt extraction of HeLa nuclei (human cervical cancer cell line)
The assay can be described thus: HeLa nuclear extract HDAC inhibition assay. The note with it: HeLa cell line nuclear extract. It is filed as biochemical, Human. The protocol:
as §1, §2, §3

The target of a further assay is T5, Human HDAC1 (Homo sapiens, UniProt Q13547).
T5 construct: Full length with C-terminal GST tag, MW=79.9 kDa; GST (C); purchased BioMol SE-456; host or cells: Sf9 cells, baculovirus
T5 sequence (Q13547 whole entry): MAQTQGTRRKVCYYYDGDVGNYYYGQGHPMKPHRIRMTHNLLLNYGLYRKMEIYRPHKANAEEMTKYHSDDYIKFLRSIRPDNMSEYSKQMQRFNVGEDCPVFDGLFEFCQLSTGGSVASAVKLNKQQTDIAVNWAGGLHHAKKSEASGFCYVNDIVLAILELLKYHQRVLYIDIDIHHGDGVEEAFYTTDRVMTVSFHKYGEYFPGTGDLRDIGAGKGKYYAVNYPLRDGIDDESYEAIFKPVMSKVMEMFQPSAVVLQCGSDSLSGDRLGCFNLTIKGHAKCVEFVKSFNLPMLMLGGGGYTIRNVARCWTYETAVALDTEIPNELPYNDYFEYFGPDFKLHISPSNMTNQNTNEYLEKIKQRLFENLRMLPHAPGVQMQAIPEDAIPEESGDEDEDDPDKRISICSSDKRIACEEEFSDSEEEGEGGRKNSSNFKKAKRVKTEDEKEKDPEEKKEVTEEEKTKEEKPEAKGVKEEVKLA
The assay can be described thus: In vitro HDAC1 inhibition, fluorogenic peptide assay. It is filed as biochemical. The note with it: for IC50: read-out: IC50 (nM) of enzyme activity HDAC1. How it is done: as §1, §2, §3

T3 sequence (Q92769 whole entry): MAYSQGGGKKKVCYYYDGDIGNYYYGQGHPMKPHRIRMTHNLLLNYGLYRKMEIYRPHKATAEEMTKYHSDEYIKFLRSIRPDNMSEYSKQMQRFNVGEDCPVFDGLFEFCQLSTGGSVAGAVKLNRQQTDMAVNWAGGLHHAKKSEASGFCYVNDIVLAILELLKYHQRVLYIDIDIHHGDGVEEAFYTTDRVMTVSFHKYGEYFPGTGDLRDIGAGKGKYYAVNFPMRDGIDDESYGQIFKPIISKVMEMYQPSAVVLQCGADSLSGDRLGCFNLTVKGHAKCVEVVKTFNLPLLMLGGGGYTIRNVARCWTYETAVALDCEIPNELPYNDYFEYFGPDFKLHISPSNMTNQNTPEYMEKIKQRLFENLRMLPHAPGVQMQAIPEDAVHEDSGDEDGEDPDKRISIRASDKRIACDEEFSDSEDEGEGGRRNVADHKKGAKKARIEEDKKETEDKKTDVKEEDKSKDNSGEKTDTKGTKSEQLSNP
T1 sequence (O15379 whole entry): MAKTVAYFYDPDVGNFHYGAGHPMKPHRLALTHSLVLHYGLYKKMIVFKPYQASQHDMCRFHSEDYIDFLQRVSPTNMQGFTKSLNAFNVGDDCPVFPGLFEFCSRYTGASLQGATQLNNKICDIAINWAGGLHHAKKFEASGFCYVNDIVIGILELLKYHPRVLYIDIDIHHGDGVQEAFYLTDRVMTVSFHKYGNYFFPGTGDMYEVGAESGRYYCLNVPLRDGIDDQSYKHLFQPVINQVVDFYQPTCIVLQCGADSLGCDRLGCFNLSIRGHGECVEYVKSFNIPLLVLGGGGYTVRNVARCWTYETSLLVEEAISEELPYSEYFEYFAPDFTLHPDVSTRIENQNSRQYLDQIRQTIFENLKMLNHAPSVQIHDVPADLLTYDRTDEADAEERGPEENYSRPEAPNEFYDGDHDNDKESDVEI
T1 sequence (Q9Y618 395-489 partner limits assumed): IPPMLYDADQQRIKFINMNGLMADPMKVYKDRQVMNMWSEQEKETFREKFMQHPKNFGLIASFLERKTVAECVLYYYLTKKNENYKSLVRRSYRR

Broadly, the IC50 is the midpoint of a concentration-inhibition curve. For the compound `O=C(CCCCCNC(=O)c1[nH]c(-c2ccccc2)cc1-c1ccc(O)cc1)NO` [Example 1, N-(6-(hydroxyamino)-6-oxohexyl)-3-(4-hydroxyphenyl)-5-phenyl-1H-pyrrole-2-carboxamide], the “Selectivity against HDAC6 (IC50 HDACx/IC50 HDAC6) HDAC3” value on Human HDAC3/NcoR2 is reported as 31.2. Also, the IC50 worked out at 437 nM on Human HDAC3/NcoR2; 767 nM at Human HDAC8; 1140 nM at Human HDAC2; 31 nM in assay [1]; 354 nM at Human HDAC1. Besides, at Human HDAC8, the “Selectivity against HDAC6 (IC50 HDACx/IC50 HDAC6) HDAC8” value was 54.8. At Human HDAC2, the “Selectivity against HDAC6 (IC50 HDACx/IC50 HDAC6) HDAC2” value was found to be 81.1. For the same compound, the “Selectivity against HDAC6 (IC50 HDACx/IC50 HDAC6) HDAC1” value on Human HDAC1 amounted to 25.3.
`O=C(CCCCCNC(=O)c1[nH]c(-c2ccsc2)cc1-c1ccc(O)cc1)NO` [Example 3, N-(5-(hydroxycarbamoyl)pentyl)-3-(4-hydroxyphenyl)-5-(3-thienyl)-1H-pyrrole-2-carboxamide]: the IC50 on Human HDAC3/NcoR2 was found to be 441 nM; on Human HDAC8 it was 975 nM; at Human HDAC2, 1270 nM; in assay [1], 46 nM; on Human HDAC1, 438 nM.
For `O=C(CCCCCNC(=O)c1[nH]c(-c2ccc(O)cc2)cc1-c1ccoc1)NO` [Example 5, 3-(3-furyl)-N-(5-(hydroxycarbamoyl)pentyl)-5-(4-hydroxy-phenyl)-1H-pyrrole-2-carboxamide] the same measures were 20 nM, 278 nM, 56 nM, 1.6 nM and 19 nM.
`O=C(CCCCCNC(=O)c1[nH]c(-c2ccc(O)cc2)cc1-c1ccccc1)NO` [Example 2, N-(6-(hydroxyamino)-6-oxohexyl)-5-(4-hydroxyphenyl)-3-phenyl-1H-pyrrole-2-carboxamide]: at Human HDAC3/NcoR2, the “Selectivity against HDAC6 (IC50 HDACx/IC50 HDAC6) HDAC3” value is reported as 32.9 and the IC50 was 250 nM. At Human HDAC8, the “Selectivity against HDAC6 (IC50 HDACx/IC50 HDAC6) HDAC8” value amounted to 21.3 and the IC50 was determined as 162 nM. Also, at Human HDAC2, the “Selectivity against HDAC6 (IC50 HDACx/IC50 HDAC6) HDAC2” value is 52.1 and the IC50 turned out to be 396 nM. Further, in assay [1], it took 18 nM to reach half-maximal inhibition (IC50). In addition, on Human HDAC1, the “Selectivity against HDAC6 (IC50 HDACx/IC50 HDAC6) HDAC1” value is recorded as 20.1 and the half-maximal inhibitory concentration (IC50) is 153 nM.
As for `O=C(CCCCCNC(=O)c1[nH]c(-c2ccc(O)cc2)cc1-c1ccsc1)NO` [Example 6, N-(5-(hydroxycarbamoyl)pentyl)-5-(4-hydroxyphenyl)-3-(3-thienyl)-1H-pyrrole-2-carboxamide], the IC50 at Human HDAC3/NcoR2 is 71 nM; at Human HDAC8, 104 nM; on Human HDAC2 it was 203 nM; in assay [1], 7.3 nM; at Human HDAC1 it was 49 nM.
Consider `O=C(CCCCCNC(=O)c1[nH]c(-c2ccoc2)cc1-c1ccc(O)cc1)NO` [Example 4, 5-(3-furyl)-N-(5-(Hydroxycarbamoyl)pentyl)-3-(4-hydroxy-phenyl)-1H-pyrrole-2-carboxamide], for which the IC50 at Human HDAC3/NcoR2 worked out at 341 nM; on Human HDAC8, 591 nM; at Human HDAC2, 864 nM; in assay [1], 33 nM; on Human HDAC1 it was 353 nM.
`COc1ccc(-c2cc(-c3ccccc3)c(C(=O)NCCCCCC(=O)NO)[nH]2)cc1` [Compound B, N-[6-(hydroxyamino)-6-oxohexyl]-5-(4-methoxyphenyl)-3-phenyl-1H-pyrrole-2-carboxamide, reference compound]: at Human HDAC3/NcoR2, the “Selectivity against HDAC6 (IC50 HDACx/IC50 HDAC6) HDAC3” value turned out to be 13.0 and the IC50 came to 415 nM. In addition, on Human HDAC8, the “Selectivity against HDAC6 (IC50 HDACx/IC50 HDAC6) HDAC8” value worked out at 5.4 and the IC50 turned out to be 174 nM. On Human HDAC2, the “Selectivity against HDAC6 (IC50 HDACx/IC50 HDAC6) HDAC2” value is reported as 28.7 and the IC50 stood at 918 nM. Besides, the midpoint of inhibition in assay [1], the IC50, lay at 27 nM. Moreover, at Human HDAC1, the “Selectivity against HDAC6 (IC50 HDACx/IC50 HDAC6) HDAC1” value is reported as 8.6 and the IC50 worked out at 276 nM.
For the compound `COc1ccc(-c2cc(-c3ccccc3)[nH]c2C(=O)NCCCCCC(=O)NO)cc1` [Compound A, N-[6-(hydroxyamino)-6-oxohexyl]-3-(4-methoxyphenyl)-5-phenyl-1H-pyrrole-2-carboxamide, reference compound], at Human HDAC3/NcoR2, the “Selectivity against HDAC6 (IC50 HDACx/IC50 HDAC6) HDAC3” value worked out at 28.6 and the concentration for half-maximal inhibition (IC50) came out at 572 nM. Also, on Human HDAC8, the “Selectivity against HDAC6 (IC50 HDACx/IC50 HDAC6) HDAC8” value stood at 9.6 and the IC50 worked out at 192 nM. On Human HDAC2, the “Selectivity against HDAC6 (IC50 HDACx/IC50 HDAC6) HDAC2” value stood at 64.7 and the IC50 amounted to 1290 nM. Half-maximal inhibition in assay [1] (IC50) was put at 61 nM. Also, on Human HDAC1, the “Selectivity against HDAC6 (IC50 HDACx/IC50 HDAC6) HDAC1” value is reported as 23.2 and the 50% inhibitory concentration (IC50) stood at 464 nM.
